Like-named read-outs stand apart in the source and are kept apart here.
Columns and labels:
[1] = target: T1, F1F0-ATPase (Bos taurus, UniProt P13621); experiment: Inhibition of F1F0-ATPase activity in synthesizing ATP (ATP synthesis inhibition); type: biochemical; details: detection limit IC50=16 μM, read-out: ATP Syn IC50
T1 construct: from tissue
Description: (§1) Exemplary compounds described in above Examples were tested for activity against F1F0-ATPase by measuring the ability of the compounds to inhibit ATP synthesis. In addition, the compounds were assessed for cytotoxicity in Ramos cells. Inhibition of F1F0-ATPase activity in synthesizing ATP and cytotoxicity in Ramos cells were measured according to the procedures described in K. M. Johnson et al. Chemistry & Biology 2005, 12, 485-496.

[2] = test system: Ramos cells; experiment: Cytotoxicity in Ramos cells; type: cell-based; details: detection limit EC50=16 μM, read-out: Ramos Cell EC50
Description: as §1

IC50 [1] [µM] | SMILES | EC50 [2] [µM] | EC50 ([2]; Homo sapiens) [µM]
< 5 | Cn1cc(C(=O)/N=C(/Nc2cccc(F)c2)Nc2cc(-c3ccc(O)cc3F)[nH]n2)c(C(F)(F)F)n1 [Compound A-139] | < 5 | –
5 to 16 | COC[C@H](C)N/C(=N/C(=O)c1cnoc1C)Nc1cc(-c2cc(F)cc(F)c2)[nH]n1 [Compound A-80] | > 16 | –
> 16 | CCOCCN/C(=N/C(=O)c1snnc1C)Nc1cc(-c2ccc(F)cc2)[nH]n1 [Compound A-121] | > 16 | –
< 5 | Cn1cc(C(=O)/N=C(\Nc2cc(-c3ccc(O)c(F)c3)n[nH]2)Nc2ccccc2C(C)(C)C)c(C(F)(F)F)n1 [Compound A-167] | < 5 | –
5 to 16 | COc1ccc(-c2cc(N/C(=N\C(=O)c3cn(C)nc3C(F)(F)F)NC3CCCC3)n[nH]2)cc1F [Compound A-129] | < 5 | –
> 16 | Cc1oncc1C(=O)N=C(Nc1cc(-c2ccc(F)cc2)n[nH]1)NC1CCCC1 [Compound A-124] | – | > 16
< 5 | CCOC(=O)NC1CCC(N/C(=N\C(=O)c2cc(C)oc2C(F)(F)F)Nc2ccccc2C(F)(F)F)CC1 (stereo not shown) [Compound A-214] | – | > 16
< 5 | Cc1cc(C(=O)/N=C(/Nc2cc(F)cc(Cl)c2)Nc2cc(-c3cc(F)cc(F)c3)[nH]n2)c(C(F)(F)F)o1 [Compound A-115] | 5 to 16 | –
< 5 | Cc1cc(C(=O)/N=C(/Nc2cc(F)cc(Cl)c2)Nc2cc(C(F)(F)F)nn2C)on1 [Compound A-228] | – | < 5
5 to 16 | COCC(C)NC(=NC(=O)c1cnoc1C)Nc1cc(-c2ccc(Cl)cc2)n[nH]1 (stereo not shown) [Compound A-75] | – | > 16
< 5 | COc1ccc(-c2cc(N/C(=N\C(=O)c3cn(C)nc3C(F)(F)F)Nc3cccc(Cl)c3)[nH]n2)cc1F [Compound A-154] | > 16 | –
< 5 | Cc1ccc(-c2cc(N/C(=N\C(=O)c3cnoc3C)NC3CCCC3)n[nH]2)cc1F [Compound A-91] | < 5 | –
< 5 | Cn1cc(C(=O)/N=C(\Nc2cc(-c3cc(O)ccc3Cl)n[nH]2)NC(C)(C)C)c(C(F)(F)F)n1 [Compound A-181] | 5 to 16 | –
> 16 | Cc1oncc1C(=O)N=C(Nc1cc(-c2ccc(Cl)cc2)n[nH]1)NC(C)C [Compound A-70] | – | > 16
< 5 | CCC(C)N/C(=N/C(=O)c1cnoc1C)Nc1cc(-c2cc(F)cc(F)c2)n[nH]1 (stereo not shown) [Compound A-88] | 5 to 16 | –
5 to 16 | CCOC(=O)NC1CCC(N/C(=N/C(=O)c2cn(C)nc2C(F)(F)F)Nc2cc(F)cc(Cl)c2)CC1 (stereo not shown) [Compound A-219] | – | 5 to 16

IC50 [1] [µM] | SMILES | EC50 [2] [µM] | EC50 ([2]; Homo sapiens) [µM]
> 16 | CCOCC(C)N/C(=N/C(=O)c1nc(C)oc1C)Nc1cc(-c2ccc(F)cc2)n[nH]1 (stereo not shown) [Compound A-194] | < 5 | –
< 5 | CCOC(=O)NC1CCC(N/C(=N\C(=O)c2cc(C)oc2C(F)(F)F)NCc2ccc(F)cc2Cl)CC1 (stereo not shown) [Compound A-126] | – | < 5
< 5 | Cc1cc(C(=O)/N=C(\Nc2cc(-c3ccc(F)cc3)n[nH]2)NC(C)(C)C)c(C)o1 [Compound A-190] | 5 to 16 | –
< 5 | Cn1cc(C(=O)/N=C(\Nc2cc(-c3ccc(O)c(F)c3)n[nH]2)Nc2cccc(Cl)c2F)c(C(F)(F)F)n1 [Compound A-177] | < 5 | –
< 5 | Cc1cc(C(=O)/N=C(\Nc2cc(-c3cc(F)cc(F)c3)n[nH]2)NC2CCCC2)n(C)n1 [Compound A-82] | 5 to 16 | –
5 to 16 | COc1ccc(-c2cc(N/C(=N\C(=O)c3cn(C)nc3C(F)(F)F)NC(C)(C)C)n[nH]2)cc1F [Compound A-128] | < 5 | –
> 16 | CCC(C)N/C(=N/C(=O)c1cnoc1C)Nc1cc(-c2ccc(Cl)cc2)n[nH]1 (stereo not shown) [Compound A-90] | > 16 | –
< 5 | CCC(C)N/C(=N/C(=O)c1cc(C)oc1C(F)(F)F)Nc1cc(-c2ccc(F)cc2)n[nH]1 (stereo not shown) [Compound A-204] | < 5 | –
< 5 | COc1ccc(-c2cc(NC(=NC(=O)c3cn(C)nc3C(F)(F)F)Nc3ccc(F)c(Cl)c3)[nH]n2)cc1F [Compound A-155] | – | > 16
5 to 16 | CC(C)c1ccc(N/C(=N/C(=O)c2cn(C)nc2C(F)(F)F)Nc2cc(-c3ccc(O)c(F)c3)n[nH]2)cc1 [Compound A-175] | < 5 | –
< 5 | CC(C)CN/C(=N/C(=O)c1cn(C)nc1C(F)(F)F)Nc1cc(-c2cc(O)ccc2F)n[nH]1 [Compound A-179] | > 16 | –
< 5 | Cn1nc(C(C)(C)C)cc1C(=O)/N=C(\Nc1cc(-c2ccc(Cl)cc2)n[nH]1)NC(C)(C)C [Compound A-72] | < 5 | –
< 5 | Cc1oncc1C(=O)/N=C(\Nc1cc(-c2cc(F)cc(F)c2)n[nH]1)NC(C)(C)C [Compound A-87] | < 5 | –
5 to 16 | Cc1cc(C(=O)/N=C(\Nc2cc(-c3cc(F)cc(F)c3)[nH]n2)NC(C)(C)C)c(C(F)(F)F)o1 [Compound A-114] | 5 to 16 | –
> 16 | Cc1nnsc1C(=O)/N=C(\Nc1cc(-c2ccc(F)cc2)[nH]n1)NC1CCCC1 [Compound A-122] | > 16 | –

Further lines, the molecule ahead of its results:

SMILES | IC50 [1] [µM] | EC50 [2] [µM] | EC50 ([2]; Homo sapiens) [µM]
Cc1cc(C(=O)/N=C(/NCc2ccccc2C)Nc2cc(-c3ccc(F)cc3)n[nH]2)no1 [Compound A-42] | < 5 | 5 to 16 | –
CCOCCN/C(=N\C(=O)c1cn(C)nc1C(F)(F)F)Nc1cc(-c2cc(F)cc(F)c2)n[nH]1 [Compound A-30] | < 5 | < 5 | –
Cc1oncc1C(=O)/N=C(/NCC(C)C)Nc1cc(-c2ccc(Cl)cc2)n[nH]1 [Compound A-69] | > 16 | > 16 | –
Cc1cc(C(=O)/N=C(\Nc2cc(-c3ccc(F)cc3)n[nH]2)NC(C)(C)C)on1 [Compound A-40] | 5 to 16 | > 16 | –
CSc1ccccc1N/C(=N\C(=O)c1cn(C)nc1C(F)(F)F)Nc1cc(-c2ccc(O)cc2F)n[nH]1 [Compound A-6] | 5 to 16 | < 5 | –
COc1cccc(CN/C(=N/C(=O)c2ccn(C)n2)Nc2cc(-c3ccc(F)cc3)n[nH]2)c1 [Compound A-45] | 5 to 16 | 5 to 16 | –
CC(C)CN/C(=N/C(=O)c1cn(C)nc1C(F)(F)F)Nc1cc(-c2ccc(O)c(F)c2)n[nH]1 [Compound 3, N-(((3-(3-Fluoro-4-hydroxyphenyl)-1H-pyrazol-5-yl)amino)(isobutylamino)methylene)-1-methyl-3-(trifluoromethyl)-1H-pyrazole-4-carboxamide] | 5 to 16 | – | > 16
Cn1cc(C(=O)N=C(Nc2cc(-c3ccc(O)cc3F)n[nH]2)Nc2ccc(F)cc2F)c(C(F)(F)F)n1 [Compound A-4] | 5 to 16 | – | < 5
Cc1nc(C(=O)/N=C(/Nc2ccc(F)cc2)Nc2ccc(Cl)cc2)cs1 [Compound A-18] | – | – | > 16
CCCn1ccc(C(=O)/N=C(\Nc2cc(-c3ccc(F)cc3)n[nH]2)NC(C)(C)C)n1 [Compound A-58] | < 5 | < 5 | –
Cc1cc(C(=O)/N=C(\Nc2cc(-c3ccc(Cl)cc3)n[nH]2)NC(C)(C)C)n(C)n1 [Compound A-65] | < 5 | 5 to 16 | –
Cc1ccccc1CN/C(=N/C(=O)c1cc(C(C)(C)C)nn1C)Nc1cc(-c2ccc(F)cc2)n[nH]1 [Compound A-44] | < 5 | < 5 | –
Cc1nc(C(=O)/N=C(/Nc2ccc(F)cc2)Nc2cccc(Cl)c2)cs1 [Compound A-22] | – | – | > 16
Cc1nc(C(=O)/N=C(\Nc2ccc(Cl)cc2)Nc2ccc3[nH]c(=O)oc3c2)cs1 [Compound A-20] | – | – | > 16
Cc1nc(C(=O)/N=C(/Nc2ccc3[nH]ncc3c2)Nc2ccccc2C(C)(C)C)cs1 [Compound A-15] | – | – | 5 to 16
Cc1oncc1C(=O)/N=C(/NCc1ccc(F)cc1Cl)Nc1cc(-c2ccc(F)cc2)n[nH]1 [Compound A-37] | – | 5 to 16 | –
Cc1nc(C(=O)/N=C(\Nc2cccc(C(F)(F)F)c2)Nc2ccc3[nH]c(=O)oc3c2)cs1 [Compound A-12] | – | – | > 16
Cc1ccccc1CN/C(=N/C(=O)c1ccno1)Nc1cc(-c2ccc(F)cc2)n[nH]1 [Compound A-39] | 5 to 16 | – | –
Cc1nc(C(=O)/N=C(/Nc2ccc(N3CCC(O)CC3)cc2)Nc2ccccc2C(C)(C)C)cs1 [Compound A-17] | – | – | > 16
Cc1nc(C(=O)/N=C(\Nc2cccc(Cl)c2)Nc2ccc3[nH]ncc3c2)cs1 [Compound A-23] | – | – | > 16
Cc1nc(C(=O)/N=C(\Nc2cccc(C(F)(F)F)c2)Nc2ccc3[nH]ncc3c2)cs1 [Compound A-11] | – | – | > 16
Cc1nc(C(=O)/N=C(\Nc2ccc(Cl)cc2)Nc2ccc(N3CCC(O)CC3)cc2)cs1 [Compound A-21] | – | – | > 16
Cc1nc(C(=O)/N=C(/Nc2ccc(N3CCC(O)CC3)cc2)Nc2cccc(C(F)(F)F)c2)cs1 [Compound A-13] | – | – | > 16
Cn1nc(C(C)(C)C)cc1C(=O)/N=C(\Nc1cc(-c2ccc(F)cc2)n[nH]1)NC(C)(C)C [Compound A-43] | < 5 | – | –
Cc1nc(C(=O)/N=C(/Nc2ccc(F)cc2)Nc2cccc(C(F)(F)F)c2)cs1 [Compound A-10] | – | – | > 16
Cc1nc(C(=O)/N=C(/Nc2ccc3[nH]c(=O)oc3c2)Nc2ccccc2C(C)(C)C)cs1 [Compound A-16] | – | – | > 16
Cc1cc(C(=O)N=C(Nc2cc(-c3ccc(F)cc3)[nH]n2)NC(C)(C)C)no1 [Compound A-41] | 5 to 16 | – | –
Cc1nc(C(=O)/N=C(\Nc2cccc(Cl)c2)Nc2ccc3[nH]c(=O)oc3c2)cs1 [Compound A-24] | – | – | > 16
Cc1nc(C(=O)/N=C(/Nc2ccc(F)cc2)Nc2ccccc2C(C)(C)C)cs1 [Compound A-14] | – | – | > 16
Cc1nc(C(=O)/N=C(\Nc2ccc(Cl)cc2)Nc2ccc3[nH]ncc3c2)cs1 [Compound A-19] | – | – | > 16
